The values that follow come from ChEMBL document CHEMBL3507680, “University of Dundee, Gates Library screen for HepG2 cell viability”.

Molecules are shown by their SMILES.

This data set can be described thus: Human HepG2 cell viability assay in 384 well format. The data set is classed as toxicity, cell-based. Details: dose 125 nL, time 70.5 hour; concentration not given beside the values. The conditions noted are these: HepG2 cells, read-out: Inhibition.
Consider `CC(C)CN(Cc1cnn(C)c1)C(=O)C1COc2ccccc2C1` (stereo unspecified), for which the cytotoxicity at 70.5 h was found to be 1.15%.

Regarding `Cc1nc[nH]c1C(=O)NCc1cccnc1N(C)C1CCCCC1`, the cytotoxicity at 70.5 h turned out to be 4.83%.

In the case of `O=C(CC1COCCN1)N1CCC(N2CCc3ccccc3C2)CC1` (stereo unspecified), the cytotoxicity at 70.5 h amounted to 7.65%.

Regarding `CCn1nc(C)c(CCNC(=O)c2cccc(NCC(=O)O)c2)c1C`, the cytotoxicity at 70.5 h is 1.17%.

For `CN(C)c1nc2c(c(=O)[nH]1)CCN(C(=O)c1ccc(=O)[nH]c1)C2`, the cytotoxicity at 70.5 h was -3.2%.

In the case of `CCn1c(C2CCCN(Cc3ccc(OC)c(C)c3C)C2)nn(C)c1=O` (stereo unspecified), the cytotoxicity at 70.5 h was -5.07%.

`N#CC1(c2ccccc2)CCN(C(=O)C2CCCN(C(N)=O)C2)CC1` (stereo unspecified): the cytotoxicity at 70.5 h came to 43.9%.

Regarding `Cc1[nH]c2c(C)ccc(C)c2c1CC(=O)NC1CCCNC1=O` (stereo unspecified), the cytotoxicity at 70.5 h was -5.85%.

On to `Cc1ccc(-c2nnc(CN3CCCC(O)(CO)CC3)o2)n1C` (stereo unspecified), for which the cytotoxicity at 70.5 h turned out to be 14.8%.

As to `COc1cccc2c1OCC(Cc1cnc(N)c(C)c1)C2` (stereo unspecified), the cytotoxicity at 70.5 h is -8.04%.

For the molecule `Cn1cc(CCC(=O)N2C[C@H]3CC[C@@H]2CN(Cc2cccnc2)C3)cn1`, the cytotoxicity at 70.5 h was found to be 12.2%.

`C[C@@H]1CN(CCC(=O)NCc2ccccc2Cl)CC[C@@]1(O)C1CCC1`: the cytotoxicity at 70.5 h is -0.451%.

In the case of `COCc1cc(N2CCOCC2)n2nccc2n1`, the cytotoxicity at 70.5 h was -3.4%.

With `Cc1nc(C)c(Cc2nc(C3CC3)n[nH]2)c(=O)[nH]1`, the cytotoxicity at 70.5 h is -3.16%.

In the case of `O=C(c1cc(=O)[nH]c(=O)[nH]1)N1CCCC(CO)(CC2CC2)C1` (stereo unspecified), the cytotoxicity at 70.5 h was -10.5%.

Regarding `c1cnn(Cc2ccc(CN3CCC4(CCNCC4)C3)cc2)c1`, the cytotoxicity at 70.5 h is 2.52%.

As to `Cc1nc(CN(C)Cc2nc(-c3sccc3C)oc2C)no1`, the cytotoxicity at 70.5 h is -3%.

With `Cc1ccc(N2CCN(c3ccccc3C)CC2C)nn1` (stereo unspecified), the cytotoxicity at 70.5 h was -0.203%.

Consider `O=C(Nc1cnc2n1CCCC2)c1cccc(OCC(F)(F)F)c1`, for which the cytotoxicity at 70.5 h was -6.16%.

On to `Cc1cc(N2Cc3cnn(CCO)c3C2)nc(-c2ccccc2)n1`, for which the cytotoxicity at 70.5 h is -11.9%.

In the case of `Cc1ccc(-c2cnnc(NCC3(N4CCOCC4)CCCC3)n2)o1`, the cytotoxicity at 70.5 h is -8.14%.

In the case of `COc1ccccc1CC(=O)N(CCN1CCOCC1)Cc1ccco1`, the cytotoxicity at 70.5 h was -1.43%.

As for `Cc1ccc(C(C(=O)NC(C)(C)CN2CCCC2)N(C)C)cc1` (stereo unspecified), the cytotoxicity at 70.5 h is 45%.

On to `Cc1cc(CC(C)Nc2nc(-c3cccnc3)nc3c2CNC3)[nH]n1` (stereo unspecified), for which the cytotoxicity at 70.5 h is -12%.

On to `CCNC(=O)[C@@H]1C[C@H](N)CN1Cc1ccc2cccc(Cl)c2n1`, for which the cytotoxicity at 70.5 h is -7.99%.

With `Cc1n[nH]c(CN2CCN(Cc3ccccc3)[C@@H]3CS(=O)(=O)C[C@@H]32)n1`, the cytotoxicity at 70.5 h was found to be 0.0797%.

For the molecule `CCCn1ncc(C(=O)N2CCN(C(=O)c3ccc[nH]3)CC2)c1C`, the cytotoxicity at 70.5 h was -7.32%.

For the molecule `CC(C)[C@@H]1CN(Cc2ccccn2)C[C@H]1NS(=O)(=O)N(C)C`, the cytotoxicity at 70.5 h was -0.239%.

Regarding `CC(C)(C)NC(=O)[C@@H]1Cc2ccccc2CN1Cc1cccs1`, the cytotoxicity at 70.5 h amounted to 8.37%.

With `O=C(CCCc1ccc(Cl)cc1)N1CCC(c2nnc[nH]2)CC1`, the cytotoxicity at 70.5 h is -2.6%.

With `CC(C)(CN1CCC2(CCCNC2)C1)N1CCOCC1` (stereo unspecified), the cytotoxicity at 70.5 h worked out at 8.57%.

For `CC(C)N1CCC(N2CCCC(C(=O)NCC3(O)CCCCC3)C2)CC1` (stereo unspecified), the cytotoxicity at 70.5 h is -3.9%.

Turning to `Cc1cc(C)c2nc(CN3CCC(N4CCOC4=O)CC3)cc(O)c2c1`, the cytotoxicity at 70.5 h came out at 2.37%.

With `Cc1cccc(CN2CCCC(O)(CNCCc3c[nH]cn3)C2=O)c1` (stereo unspecified), the cytotoxicity at 70.5 h was found to be 9.08%.

On to `CC(=O)NC1CCN(C(=O)c2cnc(COc3ccccc3)nc2O)C1` (stereo unspecified), for which the cytotoxicity at 70.5 h is -4.02%.

As to `CC(C)(O)c1cn(C2CCN(c3ncccc3Cl)CC2)nn1`, the cytotoxicity at 70.5 h was 3.9%.

On to `Cc1cc(C)c(-n2cccn2)c(CN2CCOCC(CN(C)C)C2)c1` (stereo unspecified), for which the cytotoxicity at 70.5 h was -3.75%.

Consider `CCOCC(=O)N1Cc2cnc(-c3ccccc3)nc2C1`, for which the cytotoxicity at 70.5 h is -13%.

As for `O=C(c1ccccc1)N1C[C@@H]2CC[C@H](C1)N(S(=O)(=O)c1cccnc1)C2`, the cytotoxicity at 70.5 h was -7.07%.

With `CN(C)CCOc1cccc(CN2CCCC3(C2)CN(C)C(=O)O3)c1` (stereo unspecified), the cytotoxicity at 70.5 h was 26%.

`Oc1cc(CNCCN2CCCCC2)nc2c(F)cccc12`: the cytotoxicity at 70.5 h was found to be 24.5%.

With `Cc1cccnc1NCCNC(=O)c1cnc(-c2ccccn2)nc1O`, the cytotoxicity at 70.5 h is 46.5%.

With `COc1cccc(N2CCN(C(=O)C(O)c3ccccc3Cl)CC2=O)c1` (stereo unspecified), the cytotoxicity at 70.5 h was -4.36%.

For `CCc1cn[nH]c1C1CCN(C(=O)c2cccc(O)c2C)CC1`, the cytotoxicity at 70.5 h is -12.3%.

`COCCN(CC1CCCO1)C(=O)CCNC(=O)c1ccccc1F` (stereo unspecified): the cytotoxicity at 70.5 h is -13.6%.

With `Cc1cnc(NC(=O)c2ccc(C3CCCN3CC(C)C)s2)s1` (stereo unspecified), the cytotoxicity at 70.5 h was -5.46%.

With `O=C(Nc1cccc2ccccc12)N1CCC(N2CCSCC2)CC1`, the cytotoxicity at 70.5 h is -0.0142%.

Consider `Cc1ccc(OCc2occc2C(=O)N2C[C@@H]3[C@@H](CN(C)C)[C@@H]3C2)cc1`, for which the cytotoxicity at 70.5 h was -9.55%.

Turning to `CCc1cc(N(C)CCc2noc(C)n2)nc(N2CCOCC2)n1`, the cytotoxicity at 70.5 h was -7.76%.

As to `CC(C)Oc1cccc(Cc2nc3c([nH]2)CCCNC3=O)c1`, the cytotoxicity at 70.5 h was -4.78%.

For `NC(=O)c1ccc(N2CCN(Cc3cccc4nsnc34)CC2)nc1`, the cytotoxicity at 70.5 h was -4.59%.

Take `CN1C(=O)[C@H]2CC[C@@H]1CN(C(=O)Nc1ccccc1C(F)(F)F)C2`: the cytotoxicity at 70.5 h is -4.06%.

Turning to `CCO[C@H]1C[C@@H](O)C12CCN(C1Cc3ccccc3C1)CC2`, the cytotoxicity at 70.5 h was -10.5%.

Take `O=C(O)c1ccc(CNC(=O)C2CCN(Cc3ccco3)CC2)s1`: the cytotoxicity at 70.5 h is -3.49%.

For `CC(C)c1nc(CNC(=O)c2ccc(C(C)N3CCCCC3)o2)cs1` (stereo unspecified), the cytotoxicity at 70.5 h amounted to 11.9%.

Consider `Cc1cc(C)c2c(N3CCN(C(=O)N4CCOCC4)CC3)ncnc2n1`, for which the cytotoxicity at 70.5 h came out at 30.5%.

Consider `CCN(CC)C(CNCc1cc(F)cc(F)c1)c1ccco1` (stereo unspecified), for which the cytotoxicity at 70.5 h turned out to be 20.8%.

For `Cc1ccc(NC2CCCN(CCc3ccccc3)C2)nn1` (stereo unspecified), the cytotoxicity at 70.5 h was -3.93%.

Regarding `CCCc1nnc(N2CCC3(CCC(=O)N(C)C3)CC2)o1`, the cytotoxicity at 70.5 h worked out at 4.55%.

Consider `Oc1ccccc1CN1CCC(n2cc(-c3ccc(F)cc3)nn2)CC1`, for which the cytotoxicity at 70.5 h was -4%.

Turning to `CCCn1cc(NC(=O)c2cccc(CN3CC[C@H](O)C3)c2)nn1`, the cytotoxicity at 70.5 h was -11.9%.

As for `CCCn1cnc(NC(=O)NCC2CCS(=O)(=O)C2)n1` (stereo unspecified), the cytotoxicity at 70.5 h worked out at 12.9%.

Take `CCc1nc(CN(C)C(=O)C2CCC(=O)N(CC3CCCCC3)C2)no1` (stereo unspecified): the cytotoxicity at 70.5 h is -4.07%.

In the case of `Cc1c(CN2CCc3[nH]cnc3C2C2CC2)[nH]c2ccc(F)cc12` (stereo unspecified), the cytotoxicity at 70.5 h was determined as 4.41%.

Consider `Cc1ccoc1C(=O)N1CCC(n2cc(CO)nn2)CC1`, for which the cytotoxicity at 70.5 h is -3.4%.

As to `CCNC(=O)[C@@H]1C[C@H](N)CN1C(=O)CCc1ccc(C)c(C)c1`, the cytotoxicity at 70.5 h is -3.41%.

With `CSc1nccc(NCc2cc3n(n2)CCCN(S(C)(=O)=O)C3)n1`, the cytotoxicity at 70.5 h is -12.4%.

Consider `Cc1nccn1CCCN1CCCC(c2nccn2C)C1` (stereo unspecified), for which the cytotoxicity at 70.5 h worked out at 21.3%.

Turning to `COCCN1C[C@H]2CC[C@@H]1CN(Cc1nc3ccccc3n1C)C2`, the cytotoxicity at 70.5 h is -6.43%.

Consider `COc1cccc2c1OCC(CNc1ccc(C)nn1)C2` (stereo unspecified), for which the cytotoxicity at 70.5 h is -3.11%.

Take `Cc1cc(C2CCC2)nc(NCC(C)(C)CO)n1`: the cytotoxicity at 70.5 h was -2.23%.

With `CC1=NOC(C(=O)N(C)CCCn2nc(C)cc2C)C1` (stereo unspecified), the cytotoxicity at 70.5 h is -0.336%.

For the molecule `OC[C@H]1CN(Cc2c(Cl)cncc2Cl)C[C@H]1CN1CCCCCC1`, the cytotoxicity at 70.5 h was -1.47%.

With `N#Cc1ccccc1CC1CCCS(=O)(=O)C1` (stereo unspecified), the cytotoxicity at 70.5 h is 1.43%.

`COc1ccc(CN(CC2CCCO2)C(=O)CN2CCCCC2=O)cc1` (stereo unspecified): the cytotoxicity at 70.5 h was -12.9%.

With `Cc1c(NC(=O)NC2CCOCC2)cccc1C(=O)N1CCCC1`, the cytotoxicity at 70.5 h is 10.6%.

With `CC(C)[C@]1(O)CN(C(=O)C2(Cn3cccn3)CC2)C[C@H]1C`, the cytotoxicity at 70.5 h is -7.77%.

`CN(Cc1cc(C(C)(C)C)n[nH]1)C(=O)c1ccccc1C1CCNC1` (stereo unspecified): the cytotoxicity at 70.5 h is -13.4%.

Regarding `Cc1ccc(-c2cn[nH]c2C2CCCN(c3cnccn3)C2)cc1` (stereo unspecified), the cytotoxicity at 70.5 h turned out to be 10.6%.

As for `CN1CC(C(=O)N(C)Cc2cc(-c3cccnc3)no2)NC1=O` (stereo unspecified), the cytotoxicity at 70.5 h is -8.52%.

On to `COc1cc(S(=O)(=O)N2C[C@@H](C)[C@@](C)(O)C2)c(C)cc1C`, for which the cytotoxicity at 70.5 h was 0.245%.

In the case of `COc1ccc(C(=O)N2CCN(c3cc(CCN)nc(C)n3)CC2)cc1`, the cytotoxicity at 70.5 h was -0.395%.

Take `CCn1c(C2CCCN(Cc3ccc4ccccc4n3)C2)nn(C)c1=O` (stereo unspecified): the cytotoxicity at 70.5 h is -3.7%.

On to `CNCCN1C(=O)CC[C@H]2CN(c3ncc(F)cn3)CC[C@H]21`, for which the cytotoxicity at 70.5 h is 20%.

As to `O=C(Nc1ccc(F)cc1)C1CNCCN1C(=O)CSc1ccncc1` (stereo unspecified), the cytotoxicity at 70.5 h worked out at 28.9%.

For `O=S(=O)(NCc1ccccc1)Nc1ccc(-n2ccnc2)cc1`, the cytotoxicity at 70.5 h worked out at 23.3%.

With `CCc1cnc(N)nc1NC(C)c1cnn(C)c1` (stereo unspecified), the cytotoxicity at 70.5 h was -5.96%.

In the case of `Cn1c(N2CCOCC2)nc2cc(C(=O)NCc3cccnc3)ccc21`, the cytotoxicity at 70.5 h is -9.04%.

Take `O=C1NCCN(C(=O)CN2CCOC2=O)C1c1cccc(F)c1` (stereo unspecified): the cytotoxicity at 70.5 h was -18.2%.

Turning to `CNc1cc(C)nc(-c2cc(NC3CCNCC3)nc3[nH]ccc23)n1`, the cytotoxicity at 70.5 h is -4.41%.

`Cc1ncc(C(=O)N2C[C@H](CO)C[C@H](CN3CCOCC3)C2)c(=O)[nH]1`: the cytotoxicity at 70.5 h was 3.07%.

Take `CC(C)n1ccnc1C1CCCN(c2ncccc2C(N)=O)C1` (stereo unspecified): the cytotoxicity at 70.5 h is -0.947%.

In the case of `O=C1C[C@H]2CC[C@@H](CN1)N2C(=O)CCCc1ccc(Cl)cc1`, the cytotoxicity at 70.5 h was -7.24%.

For the molecule `Cc1cccc(CN2CCN(c3ncnc4[nH]cnc34)CC2CCO)n1` (stereo unspecified), the cytotoxicity at 70.5 h was determined as 9.72%.

Take `Clc1ccc(N2CCC(C3CCN(Cc4cccnc4)CC3)C2)nc1` (stereo unspecified): the cytotoxicity at 70.5 h was -8.52%.

With `Cc1nc(NC(=O)NC2CC(=O)N(C)C2)nn1C(C)C` (stereo unspecified), the cytotoxicity at 70.5 h worked out at 2.26%.
